For this data set the following is noted: 101.3 kPa, Liquid.

Each structure is given as a SMILES string. Numbers after ± are expanded uncertainties.

For `CCCCCCCCCC` [decane], where the note is “293.15 K”, the mass density is recorded as 729.9 ± 0.5 kg/m3, the speed of sound was determined as 1254 ± 2 m/s and the viscosity is 0.911 ± 0.015 mPa·s. Moreover, where the note is “298.15 K”, the mass density turned out to be 726.1 ± 0.5 kg/m3, the speed of sound was 1235 ± 2 m/s and the viscosity is 0.845 ± 0.014 mPa·s. Besides, under “303.15 K”, the mass density is given as 722.3 ± 0.5 kg/m3, the speed of sound turned out to be 1215 ± 2 m/s and the viscosity was found to be 0.787 ± 0.013 mPa·s.

Turning to `CCCCCCCCCCCC` [dodecane], for the setting “293.15 K”, the mass density is 748.5 ± 0.5 kg/m3, the speed of sound was 1297 ± 2 m/s and the viscosity is listed as 1.454 ± 0.023 mPa·s. Where the note is “298.15 K”, the mass density was 744.9 ± 0.5 kg/m3, the speed of sound is on record as 1278 ± 2 m/s and the viscosity turned out to be 1.327 ± 0.021 mPa·s. Moreover, for the setting “303.15 K”, the mass density is 741.3 ± 0.5 kg/m3, the speed of sound is reported as 1259 ± 2 m/s and the viscosity is 1.219 ± 0.02 mPa·s.

On to `CCCCCCCC` [octane], for which, for the setting “293.15 K”, the mass density worked out at 702.6 ± 0.3 kg/m3, the speed of sound was determined as 1193 ± 2 m/s and the viscosity stood at 0.538 ± 0.015 mPa·s. For the same compound, for the setting “298.15 K”, the mass density came to 698.5 ± 0.4 kg/m3, the speed of sound amounted to 1173 ± 2 m/s and the viscosity was 0.506 ± 0.014 mPa·s. For the setting “303.15 K”, the mass density is given as 694.5 ± 0.4 kg/m3, the speed of sound is 1152 ± 2 m/s and the viscosity worked out at 0.478 ± 0.014 mPa·s.

These data come from the NIST ThermoML archive (doi:10.1016/j.jct.2003.12.005).
